Results published in patent US12138256B2, “Treatment of cardiopulmonary disorders” (Bayer Aktiengesellschaft, priority 2021, dated 2024).
“And” between values parts separate entries of the source, which are not always exact repeats. Identical values can stand only once.

Tested on: thromboxane analog U46619 induced PAH in minipigs
Assay: Haemodynamics (PAP, BP) in the anesthetized thromboxane challenged PAH minipig after inhaled (nebulized) application (C-2.1)
Assay type: in vivo, Göttingen minipig
Conditions: for % changes in BP vs baseline / % changes in PAP vs baseline: inhaled 30 μg/kg
In short: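 Anesthetized, ventilated Göttingen minipigs (2-6 kg) given continuous infusion (0.3-0.75 μg/kg/min) to raise mean PAP above 25 mmHg, dosing starting after a 30 min plateau. Compound in 1% DMSO/0.2% citric acid, pH 8, nebulized via Aeroneb Pro into the inspiratory arm (~7 min; stock 300 μg/kg). PAP by Swan-Ganz catheter, BP via carotid catheter.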

`O=C(O)CCCCN(CCc1cc(F)ccc1OCc1ccc(-c2nc3cc(Cl)ccc3o2)cc1)C1CCCc2nc(C(=O)O)ccc21` (single isomer, unassigned) [comparative example 3, (5)-{(4-carboxybutyl)[2-(2-{[4-(5-chloro-1,3-benzoxazol-2-yl)benzyl]oxy}-5-fluorophenyl)ethyl]amino}-5,6,7,8-tetrahydroquinoline-2-carboxylic acid] was tested, and the “time of maximum effect on PAP” value (after inhaled application (nebulization), comparative example 11 30 μg/kg, Cinaciguat 3 and 10 μg/kg, Riociguat 100 μg/kg, comparative example 3 30 μg/kg) was 30 min, the “duration of action (PAP decrease)” value (after inhaled application (nebulization), comparative example 11 30 μg/kg, Cinaciguat 3 and 10 μg/kg, Riociguat 100 μg/kg, comparative example 3 30 μg/kg, observation interval 240 min) was 120 min and the “% changes in BP vs baseline” value (0 min vs. start inhalation) was 100% and 99%. The “% changes in PAP vs baseline” value (0 min vs. start inhalation) was 100% and 99%, the “% changes in BP vs baseline” value (10 min vs. start inhalation) was 98% and 93% and the “% changes in PAP vs baseline” value (10 min vs. start inhalation) was 103% and 99%. The “% changes in BP vs baseline” value (20 min vs. start inhalation) was 94% and 87%, the “% changes in PAP vs baseline” value (20 min vs. start inhalation) was 103% and 97% and the “% changes in BP vs baseline” value (30 min vs. start inhalation) was 95% and 84%. For the same compound, the “% changes in PAP vs baseline” value (30 min vs. start inhalation) was 104% and 98%, the “% changes in BP vs baseline” value (40 min vs. start inhalation) was 97% and 81% and the “% changes in PAP vs baseline” value (40 min vs. start inhalation) was 105% and 95%. The “% changes in BP vs baseline” value (50 min vs. start inhalation) was 98% and 86%, the “% changes in PAP vs baseline” value (50 min vs. start inhalation) was 106% and 95% and the “% changes in BP vs baseline” value (60 min vs. start inhalation) was 101% and 88%. For the same compound, the “% changes in PAP vs baseline” value (60 min vs. start inhalation) was 108% and 94%, the “% changes in BP vs baseline” value (70 min vs. start inhalation) was 103% and 88% and the “% changes in PAP vs baseline” value (70 min vs. start inhalation) was 108% and 93%. The “% changes in BP vs baseline” value (80 min vs. start inhalation) was 104% and 92%, the “% changes in PAP vs baseline” value (80 min vs. start inhalation) was 110% and 96% and the “% changes in BP vs baseline” value (90 min vs. start inhalation) was 106% and 95%. The “% changes in PAP vs baseline” value (90 min vs. start inhalation) was 110% and 94%, the “% changes in BP vs baseline” value (100 min vs. start inhalation) was 107% and 96% and the “% changes in PAP vs baseline” value (100 min vs. start inhalation) was 111% and 93%. For the same compound, the “% changes in BP vs baseline” value (110 min vs. start inhalation) was 109% and 100%, the “% changes in PAP vs baseline” value (110 min vs. start inhalation) was 111% and 93% and the “% changes in BP vs baseline” value (120 min vs. start inhalation) was 111% and 107%. For the same compound, the “% changes in PAP vs baseline” value (120 min vs. start inhalation) was 112% and 95%, the “% changes in BP vs baseline” value (130 min vs. start inhalation) was 111% and 104% and the “% changes in PAP vs baseline” value (130 min vs. start inhalation) was 112% and 92%. For the same compound, the “% changes in BP vs baseline” value (140 min vs. start inhalation) was 112% and 103%, the “% changes in PAP vs baseline” value (140 min vs. start inhalation) was 113% and 93% and the “% changes in BP vs baseline” value (150 min vs. start inhalation) was 112% and 107%. The “% changes in PAP vs baseline” value (150 min vs. start inhalation) was 113% and 93%, the “% changes in BP vs baseline” value (160 min vs. start inhalation) was 112% and 110% and the “% changes in PAP vs baseline” value (160 min vs. start inhalation) was 112% and 92%. The “% changes in BP vs baseline” value (170 min vs. start inhalation) was 113% and 108%, the “% changes in PAP vs baseline” value (170 min vs. start inhalation) was 110% and 92% and the “% changes in BP vs baseline” value (180 min vs. start inhalation) was 113% and 108%. For the same compound, the “% changes in PAP vs baseline” value (180 min vs. start inhalation) was 112% and 93%, the “% changes in BP vs baseline” value (190 min vs. start inhalation) was 113% and the “% changes in PAP vs baseline” value (190 min vs. start inhalation) was 111% and 93%. For the same compound, the “% changes in BP vs baseline” value (200 min vs. start inhalation) was 112% and 110%, the “% changes in PAP vs baseline” value (200 min vs. start inhalation) was 110% and 93% and the “% changes in BP vs baseline” value (210 min vs. start inhalation) was 112% and 109%. For the same compound, the “% changes in PAP vs baseline” value (210 min vs. start inhalation) was 109% and 93%, the “% changes in BP vs baseline” value (220 min vs. start inhalation) was 113% and the “% changes in PAP vs baseline” value (220 min vs. start inhalation) was 109% and 96%. For the same compound, the “% changes in BP vs baseline” value (230 min vs. start inhalation) was 111% and 112%, the “% changes in PAP vs baseline” value (230 min vs. start inhalation) was 109% and 94% and the “% changes in BP vs baseline” value (240 min vs. start inhalation) was 110% and 112%. For the same compound, the “% changes in PAP vs baseline” value (240 min vs. start inhalation) was 109% and 94%, the “% changes in BP vs baseline” value (−5 min vs. start inhalation) was 99% and 96% and the “% changes in PAP vs baseline” value (−5 min vs. start inhalation) was 99%. The “lung selectivity with respect to the hemodynamic effect” value (inhaled, 30 μg/kg) was “good lung selectivity”.
